Read-outs that look alike come from different tables or passages of the source.
What was measured:
[1] = target: T1, Rat recombinant PDE10A (rPDE10A2) (Rattus norvegicus, UniProt Q9QYJ6); experiment: In vitro assay PDE10A (SPA, 3H-cAMP); format: biochemical
T1 construct: inferred from the Ni metal chelate purification; made in house; host or cells: Sf9 insect cells (baculovirus)
T1 sequence (Q9QYJ6 1-794): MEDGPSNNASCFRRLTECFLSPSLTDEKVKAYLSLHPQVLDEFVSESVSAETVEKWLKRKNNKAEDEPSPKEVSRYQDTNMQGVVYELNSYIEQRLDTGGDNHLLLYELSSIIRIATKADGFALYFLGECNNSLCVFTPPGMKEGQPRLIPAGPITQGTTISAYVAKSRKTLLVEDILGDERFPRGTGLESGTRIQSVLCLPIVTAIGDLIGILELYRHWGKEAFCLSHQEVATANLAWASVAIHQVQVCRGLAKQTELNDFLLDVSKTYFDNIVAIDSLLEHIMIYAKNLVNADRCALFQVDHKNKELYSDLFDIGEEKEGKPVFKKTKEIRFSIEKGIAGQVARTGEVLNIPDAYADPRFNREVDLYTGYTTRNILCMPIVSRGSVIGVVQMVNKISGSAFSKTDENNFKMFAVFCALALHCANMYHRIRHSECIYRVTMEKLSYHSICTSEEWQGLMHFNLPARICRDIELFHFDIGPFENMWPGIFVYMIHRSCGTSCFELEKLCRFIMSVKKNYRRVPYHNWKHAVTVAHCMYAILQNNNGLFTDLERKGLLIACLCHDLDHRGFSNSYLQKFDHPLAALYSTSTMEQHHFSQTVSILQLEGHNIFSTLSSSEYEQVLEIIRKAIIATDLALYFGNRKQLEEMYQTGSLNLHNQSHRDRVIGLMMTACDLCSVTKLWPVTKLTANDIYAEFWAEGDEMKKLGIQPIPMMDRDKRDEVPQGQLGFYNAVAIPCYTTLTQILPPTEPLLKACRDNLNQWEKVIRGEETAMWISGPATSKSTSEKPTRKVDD
How it was run: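 Scintillation proximity read-out (cpm) of 3H-cAMP hydrolysis after 60 min at room temperature, with enzyme-free blanks and 1% DMSO controls. Enzyme was Sf9-expressed, Ni-sepharose-purified rat rPDE10A2; substrate 60 nM cAMP with tracer, buffer Tris pH 7.8 containing MgCl2 and EGTA.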

PDE4D3 = PDE4D3 (Homo sapiens, UniProt Q08499); experiment: In vitro PDE selectivity assay (SPA), PDE4D3; format: biochemical; settings: hPDE4D3; read-out: PDE 4D3 (expressed as pIC50) (converted)
Protocol: (§1) Rat recombinant PDE10A (rPDE10A2) was expressed in Sf9 cells using a recombinant rPDE10A baculovirus construct. Cells were harvested after 48 h of infection and the rPDE10A protein was purified by metal chelate chromatography on Ni-sepharose 6FF. Tested compounds were dissolved and diluted in 100% DMSO to a concentration 100 fold of the final concentration in the assay. Compound dilutions (0.4 μl) were added in 384 well plates to 20 μl of incubation buffer (50 mM Tris pH 7.8, 8.3 mM MgCl2, 1.7 mM EGTA). 10 μl of rPDE10A enzyme in incubation buffer was added and the reaction was started by addition of 10 μl substrate to a final concentration of 60 nM cAMP and 0.008 μCi ^3H-cAMP. The reaction was incubated for 60 minutes at room temperature. After incubation, the reaction was stopped with 20 μl of stop solution consisting of 17.8 mg/ml PDE SPA (scintillation proximity assay) beads. After sedimentation of the beads during 30 minutes the radioactivity was measured in a Perkin Elmer Topcount scintillation counter and results were expressed as cpm. For blanc values the enzyme was omitted from the reaction and replaced by incubation buffer. Control values were obtained by addition of a final concentration of 1% DMSO instead of compound. The same assay principle is applied for the measurement of the affinity of the compound for other members of the PDE family with appropriate modifications in incubation buffer, substrate concentration, incubation time and stop solution. An overview of the different protocols is presented in table A. A best fit curve is fitted by a minimum sum of squares method to the plot of % of control value substracted with blanc value versus compound concentration and the half maximal inhibitory concentration (IC50) value is derived from this curve.
(§2) The compounds of the invention are generally selective for PDE10 compared to other PDEs and there are a few that also have affinity for PDE1B1, 4D3 and 5A3.

[2] = target: other members of the PDE family (Homo sapiens, UniProt O00408); experiment: In vitro PDE selectivity assay (SPA), other members of the PDE family (protocols in Table A); format: biochemical; settings: hPDE2A; read-out: PDE 2A (expressed as pIC50) (converted)
How it was run: (§3)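 Inhibition of each PDE isoform was measured by scintillation proximity assay with ³H-cyclic nucleotide substrate, using incubation buffer, substrate concentration, incubation time and stop solution adapted per isoform. Compounds were tested in dose-response against 1% DMSO controls and enzyme-free blanks. IC50 came from a least-squares fit of blank-subtracted % of control versus concentration.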

[3] = target: other members of the PDE family (Homo sapiens, UniProt O76083); experiment: as above; format: biochemical; settings: hPDE9A; read-out: PDE 9A (expressed as pIC50) (converted)
How it was run: as §3

[4] = target: other members of the PDE family (Homo sapiens, UniProt Q13946); experiment: as above; format: biochemical; settings: hPDE7A1; read-out: PDE 7A (expressed as pIC50) (converted)
How it was run: as §3

[5] = target: other members of the PDE family (Homo sapiens, UniProt Q9HCR9); experiment: as above; format: biochemical; settings: hPDE11A4; read-out: PDE 11A4 (expressed as pIC50) (converted)
How it was run: as §3

[6] = target: other members of the PDE family (Homo sapiens, UniProt Q14432); experiment: as above; format: biochemical; settings: hPDE3A; read-out: PDE 3A (expressed as pIC50) (converted)
How it was run: as §3

PDE10 = target: T2, PDE10 (Rattus norvegicus, UniProt Q9QYJ6); experiment: PDE10 occupancy ([3H]-MP-10, striatum); format: in vivo; settings: for receptor occupancy at 10 mg/kg / ED50: rat, sc; for receptor occupancy at 10 mg/kg: single dose 10 mg/kg, subcutaneous, read-out: SD sc % occupancy at 10 mg/kg; for ED50: dose response, subcutaneous administration, read-out: PDE10 in vivo occupancy ED50 sc
T2 construct: from tissue; host or cells: rat brain sections, striatum (in vivo dosing, ex vivo autoradiography)
T2 sequence (Q9QYJ6 1-794): T1 sequence (Q9QYJ6 1-794)
Protocol: Dose-response or single dose experiments were performed to measure PDE10 occupancy 1 hour after subcutaneous (s.c.) or oral (p.o.) administration. Male Wistar rats (200 g) were treated by s.c. or p.o. administration of various PDE10 inhibitors. The PDE10 radioligand [^3H]-MP-10 (10 μCi/animal) was injected intravenously (i.v.) 30 minutes before sacrifice. Brains were immediately removed from the skull and rapidly frozen. Twenty μm-thick brain sections were cut using a cryostat-microtome, thaw-mounted on microscope slides and loaded in a β-imager to quantify PDE10 occupancy in the striatum.

PDE5A3 = PDE5A3 (Homo sapiens, UniProt O76074); experiment: In vitro PDE selectivity assay (SPA), PDE5A3; format: biochemical; settings: hPDE5A3; read-out: PDE 5A3 (expressed as pIC50) (converted)
Protocol: as §1, §2

[7] = tested on: apomorphine-induced stereotypy in rats; experiment: Apomorphine-induced stereotypy in rats (APO); format: in vivo; settings: Rattus norvegicus, ≧: active in 30% of the animals at the indicated dose, ≦: active in 60%
Protocol: Apomorphine (1.0 mg/kg, i.v.)-induced stereotypy (compulsive sniffing, licking, chewing) was scored every 5 min over the first hour after injection of apomorphine, following a 1 hour interval pre-treatment with the test compound. The score system was: (3) pronounced, (2) moderate, (1) slight, and (0) absent.

[8] = Table 4 in vitro selectivity, read-out: PDE 10A2 (expressed as pIC50) (converted)
[9] = pIC50 corresponds to the −log IC50 expressed in mol/L, read-out: PDE10A2 pIC50 (converted)
[10] = dose at which 50% of the tested animals show the effect

Sequence of other members of the PDE family (Homo sapiens, UniProt O00408) (O00408 whole entry, canonical isoform): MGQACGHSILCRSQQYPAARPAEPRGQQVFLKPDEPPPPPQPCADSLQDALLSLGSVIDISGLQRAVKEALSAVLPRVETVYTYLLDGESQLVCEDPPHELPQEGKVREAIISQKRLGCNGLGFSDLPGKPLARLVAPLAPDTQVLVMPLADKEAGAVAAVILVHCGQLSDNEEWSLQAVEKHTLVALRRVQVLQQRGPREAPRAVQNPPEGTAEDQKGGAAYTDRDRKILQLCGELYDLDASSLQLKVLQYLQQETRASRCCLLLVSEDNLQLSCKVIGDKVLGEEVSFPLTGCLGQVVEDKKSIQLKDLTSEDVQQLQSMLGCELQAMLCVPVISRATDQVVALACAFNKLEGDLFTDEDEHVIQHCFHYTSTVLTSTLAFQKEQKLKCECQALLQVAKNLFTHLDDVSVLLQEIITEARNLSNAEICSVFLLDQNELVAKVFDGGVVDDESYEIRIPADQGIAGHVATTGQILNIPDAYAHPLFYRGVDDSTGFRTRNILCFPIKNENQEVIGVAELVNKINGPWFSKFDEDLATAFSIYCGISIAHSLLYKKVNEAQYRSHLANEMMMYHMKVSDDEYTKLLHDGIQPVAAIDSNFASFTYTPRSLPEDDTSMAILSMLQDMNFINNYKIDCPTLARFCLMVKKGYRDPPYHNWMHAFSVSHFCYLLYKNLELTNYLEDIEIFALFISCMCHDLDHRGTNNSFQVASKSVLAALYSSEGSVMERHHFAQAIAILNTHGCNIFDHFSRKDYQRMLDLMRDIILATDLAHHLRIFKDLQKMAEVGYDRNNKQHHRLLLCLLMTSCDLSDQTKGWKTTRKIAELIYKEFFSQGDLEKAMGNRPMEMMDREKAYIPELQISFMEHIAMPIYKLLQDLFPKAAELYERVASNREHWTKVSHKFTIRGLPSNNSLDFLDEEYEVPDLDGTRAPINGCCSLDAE
Sequence of other members of the PDE family (Homo sapiens, UniProt Q13946) (Q13946 whole entry): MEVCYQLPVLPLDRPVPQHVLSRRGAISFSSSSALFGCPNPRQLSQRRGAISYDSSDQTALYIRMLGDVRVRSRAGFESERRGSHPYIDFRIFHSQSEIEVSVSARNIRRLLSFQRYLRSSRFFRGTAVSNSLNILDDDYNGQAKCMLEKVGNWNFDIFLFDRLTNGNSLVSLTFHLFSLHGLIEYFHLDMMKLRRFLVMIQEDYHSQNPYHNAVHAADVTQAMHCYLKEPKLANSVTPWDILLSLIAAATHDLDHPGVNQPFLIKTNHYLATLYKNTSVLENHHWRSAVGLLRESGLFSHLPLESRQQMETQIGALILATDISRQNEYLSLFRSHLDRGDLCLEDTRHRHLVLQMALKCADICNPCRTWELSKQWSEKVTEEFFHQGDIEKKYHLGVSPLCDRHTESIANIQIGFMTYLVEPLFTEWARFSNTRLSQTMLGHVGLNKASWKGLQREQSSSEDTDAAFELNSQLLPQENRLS
Sequence of other members of the PDE family (Homo sapiens, UniProt Q14432) (Q14432 whole entry): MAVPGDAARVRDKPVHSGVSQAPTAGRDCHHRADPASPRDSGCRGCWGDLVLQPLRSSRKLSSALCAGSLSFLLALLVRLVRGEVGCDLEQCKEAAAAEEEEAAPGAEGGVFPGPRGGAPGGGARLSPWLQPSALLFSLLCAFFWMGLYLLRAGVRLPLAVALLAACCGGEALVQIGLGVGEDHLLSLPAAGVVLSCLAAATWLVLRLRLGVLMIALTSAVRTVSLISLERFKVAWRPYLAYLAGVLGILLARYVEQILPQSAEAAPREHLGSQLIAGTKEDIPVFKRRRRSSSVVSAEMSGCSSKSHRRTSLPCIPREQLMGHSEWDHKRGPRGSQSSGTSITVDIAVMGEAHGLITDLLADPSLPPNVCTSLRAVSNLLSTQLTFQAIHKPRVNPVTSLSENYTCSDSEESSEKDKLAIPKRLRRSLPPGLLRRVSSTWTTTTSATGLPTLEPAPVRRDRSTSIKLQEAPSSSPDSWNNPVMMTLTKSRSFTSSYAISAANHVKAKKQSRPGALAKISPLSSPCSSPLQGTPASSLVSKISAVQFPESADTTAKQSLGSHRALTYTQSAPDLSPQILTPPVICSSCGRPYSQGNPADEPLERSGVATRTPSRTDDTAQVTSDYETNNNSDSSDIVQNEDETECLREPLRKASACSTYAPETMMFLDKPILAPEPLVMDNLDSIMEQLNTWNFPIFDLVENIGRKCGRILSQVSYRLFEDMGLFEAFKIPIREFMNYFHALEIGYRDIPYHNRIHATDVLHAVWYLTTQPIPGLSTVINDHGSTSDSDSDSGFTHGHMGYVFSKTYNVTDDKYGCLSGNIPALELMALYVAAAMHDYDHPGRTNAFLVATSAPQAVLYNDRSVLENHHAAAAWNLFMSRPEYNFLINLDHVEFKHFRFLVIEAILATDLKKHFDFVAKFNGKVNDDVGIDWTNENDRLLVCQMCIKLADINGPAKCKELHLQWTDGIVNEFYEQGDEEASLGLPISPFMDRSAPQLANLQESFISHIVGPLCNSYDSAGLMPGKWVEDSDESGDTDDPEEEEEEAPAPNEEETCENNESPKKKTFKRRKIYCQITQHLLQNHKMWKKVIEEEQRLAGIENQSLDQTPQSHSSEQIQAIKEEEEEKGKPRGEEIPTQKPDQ
Sequence of PDE4D3 (Q08499 1-673 isoform Q08499-2): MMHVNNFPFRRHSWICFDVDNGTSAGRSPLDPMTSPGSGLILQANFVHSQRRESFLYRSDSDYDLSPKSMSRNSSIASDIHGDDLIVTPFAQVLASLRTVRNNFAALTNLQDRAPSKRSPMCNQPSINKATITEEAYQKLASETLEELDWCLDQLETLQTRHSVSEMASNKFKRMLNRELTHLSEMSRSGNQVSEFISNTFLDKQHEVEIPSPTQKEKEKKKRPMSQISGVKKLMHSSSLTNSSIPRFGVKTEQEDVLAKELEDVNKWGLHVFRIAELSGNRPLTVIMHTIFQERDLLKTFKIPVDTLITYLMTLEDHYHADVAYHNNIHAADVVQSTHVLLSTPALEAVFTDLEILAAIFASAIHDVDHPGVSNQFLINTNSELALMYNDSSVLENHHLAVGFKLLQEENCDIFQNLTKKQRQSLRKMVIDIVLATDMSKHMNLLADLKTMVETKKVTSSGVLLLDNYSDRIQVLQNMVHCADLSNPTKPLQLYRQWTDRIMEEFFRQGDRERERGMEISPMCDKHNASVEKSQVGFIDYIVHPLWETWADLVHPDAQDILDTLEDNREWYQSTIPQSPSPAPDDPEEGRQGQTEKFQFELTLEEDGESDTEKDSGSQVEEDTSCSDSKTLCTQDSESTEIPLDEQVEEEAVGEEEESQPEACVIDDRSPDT
Sequence of other members of the PDE family (Homo sapiens, UniProt O76083) (O76083 whole entry): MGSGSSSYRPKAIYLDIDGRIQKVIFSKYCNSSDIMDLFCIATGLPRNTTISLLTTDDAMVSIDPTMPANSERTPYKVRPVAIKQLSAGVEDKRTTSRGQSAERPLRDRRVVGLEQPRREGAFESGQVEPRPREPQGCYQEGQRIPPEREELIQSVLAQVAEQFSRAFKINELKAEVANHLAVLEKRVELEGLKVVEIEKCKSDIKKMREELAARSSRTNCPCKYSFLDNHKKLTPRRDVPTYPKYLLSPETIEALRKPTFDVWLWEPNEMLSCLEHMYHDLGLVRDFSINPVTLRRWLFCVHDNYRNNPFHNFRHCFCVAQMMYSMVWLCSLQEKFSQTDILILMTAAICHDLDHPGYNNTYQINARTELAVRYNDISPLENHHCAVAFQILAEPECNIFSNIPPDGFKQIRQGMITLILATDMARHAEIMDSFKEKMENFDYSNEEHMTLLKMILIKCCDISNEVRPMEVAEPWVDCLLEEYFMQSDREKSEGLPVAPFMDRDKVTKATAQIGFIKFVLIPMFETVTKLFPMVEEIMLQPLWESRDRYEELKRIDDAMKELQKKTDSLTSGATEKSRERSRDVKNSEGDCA
Sequence of other members of the PDE family (Homo sapiens, UniProt Q9HCR9) (Q9HCR9 whole entry): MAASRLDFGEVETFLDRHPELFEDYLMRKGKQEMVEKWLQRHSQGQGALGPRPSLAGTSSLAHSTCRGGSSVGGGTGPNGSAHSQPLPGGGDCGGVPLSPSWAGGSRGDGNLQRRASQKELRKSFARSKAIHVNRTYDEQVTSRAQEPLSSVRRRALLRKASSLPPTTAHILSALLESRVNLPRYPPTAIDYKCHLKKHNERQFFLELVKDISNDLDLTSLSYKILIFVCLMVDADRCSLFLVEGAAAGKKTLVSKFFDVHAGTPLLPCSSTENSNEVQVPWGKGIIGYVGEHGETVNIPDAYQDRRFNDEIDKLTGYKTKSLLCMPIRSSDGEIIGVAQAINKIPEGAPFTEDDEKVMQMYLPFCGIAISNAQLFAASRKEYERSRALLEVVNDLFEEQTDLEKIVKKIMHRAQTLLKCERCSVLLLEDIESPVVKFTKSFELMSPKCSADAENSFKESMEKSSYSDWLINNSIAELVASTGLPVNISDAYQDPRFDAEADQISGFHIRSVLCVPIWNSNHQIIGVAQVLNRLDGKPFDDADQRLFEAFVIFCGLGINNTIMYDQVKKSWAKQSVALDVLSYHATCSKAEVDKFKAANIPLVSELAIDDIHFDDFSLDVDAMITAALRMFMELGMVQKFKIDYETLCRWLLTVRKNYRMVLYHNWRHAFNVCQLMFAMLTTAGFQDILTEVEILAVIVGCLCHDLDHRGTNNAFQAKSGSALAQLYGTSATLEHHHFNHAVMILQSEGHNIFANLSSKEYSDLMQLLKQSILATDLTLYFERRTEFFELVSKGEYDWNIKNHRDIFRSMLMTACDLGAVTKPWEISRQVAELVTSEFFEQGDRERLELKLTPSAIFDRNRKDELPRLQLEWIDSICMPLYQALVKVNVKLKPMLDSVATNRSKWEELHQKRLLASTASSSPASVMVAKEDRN

| Structure (SMILES) | IC50 [1, 8] [µM] | IC50 [1, 9] [µM] | IC50 (PDE4D3) [µM] | IC50 [2] [µM] | IC50 [3] [µM] | IC50 [4] [µM] | IC50 [5] [µM] | IC50 [6] [µM] | receptor occupancy at 10 mg/kg (PDE10) [%] | IC50 (PDE5A3) [µM] | ED50 (PDE10) [mg/kg] | % occupancy at the highest dose tested (PDE10; dose response sc, data between brackets) [%] | ED50 [7, 10] [mg/kg] | ED50 ([7]; po, * compound not soluble, tested orally as a suspension) [mg/kg] |
| --- | --- | --- | --- | --- | --- | --- | --- | --- | --- | --- | --- | --- | --- | --- |
| COCCOc1ccc(-c2c(C)nc3c(N4CCOCC4)ccnn23)cn1 [compound 16, 3-[6-(2-methoxyethoxy)-3-pyridinyl]-2-methyl-8-(4-morpholinyl)-imidazo[1,2-b]pyridazine] | 0.12 | 0.12 | > 10 | > 10 | > 10 | > 10 | > 10 | > 10 | 52 | > 10 | – | – | 3.1 | – |
| CCc1nc2c(N3CCOCC3)ccnn2c1-c1cnn(CCOC)c1 [compound 127, 2-ethyl-3-[1-(2-methoxyethyl)-1H-pyrazol-4-yl]-8-(4-morpholinyl)-imidazo[1,2-b]pyridazine] | 0.112 | 0.112 | > 10 | > 10 | > 10 | > 10 | > 10 | > 10 | 4 | 4.68 | – | – | 2 | – |
| COCCc1ccc(-c2c(C3CC3)nc3c(N4CCOCC4)ccnn23)cn1 [compound 22, 2-cyclopropyl-3-[6-(2-methoxyethyl)-3-pyridinyl]-8-(4-morpholinyl)-imidazo[1,2-b]pyridazine] | 0.0562 | 0.0562 | 2.75 | 5.89 | > 50.1 | 28.2 | 6.76 | > 50.1 | – | 3.47 | 0.94 | – | 0.5 | – |
| CO[C@@H](C)Cn1cc(-c2c(C)nc3c(N4CCOCC4)ccnn23)cn1 [compound 131, 3-[1-[(2S)-2-methoxypropyl]-1H-pyrazol-4-yl]-2-methyl-8-(4-morpholinyl)-imidazo[1,2-b]pyridazine] | 0.0347 | 0.0347 | > 10 | > 10 | > 10 | > 10 | > 10 | > 10 | 59 | 8.51 | – | – | 3.1 | – |
| CCc1ccc(-c2c(C)nc3c(N4CCOCC4)ccnn23)cn1 [compound 28, 3-(6-ethyl-3-pyridinyl)-2-methyl-8-(4-morpholinyl)-imidazo[1,2-b]pyridazine] | 0.0832 | 0.0832 | 13.2 | 26.9 | > 100 | 25.7 | 30.2 | 30.2 | – | 13.8 | 1.1 | – | 1.2 | – |
| Cc1nc2c(N3CCOCC3)ccnn2c1-c1ccc(N2CCNCC2)nc1 [compound 30, 2-methyl-8-(4-morpholinyl)-3-[6-(1-piperazinyl)-3-pyridinyl]-imidazo[1,2-b]pyridazine] | 0.123 | 0.123 | > 10 | > 10 | > 10 | > 10 | > 10 | > 10 | – | > 10 | > 10 | 6 | 7.1 | – |

Second part, led by results:

| IC50 [1, 8] [µM] | IC50 [1, 9] [µM] | IC50 (PDE4D3) [µM] | IC50 [2] [µM] | IC50 [3] [µM] | IC50 [4] [µM] | IC50 [5] [µM] | IC50 [6] [µM] | receptor occupancy at 10 mg/kg (PDE10) [%] | IC50 (PDE5A3) [µM] | ED50 (PDE10) [mg/kg] | % occupancy at the highest dose tested (PDE10; dose response sc, data between brackets) [%] | Structure (SMILES) | ED50 [7, 10] [mg/kg] | ED50 ([7]; po, * compound not soluble, tested orally as a suspension) [mg/kg] |
| --- | --- | --- | --- | --- | --- | --- | --- | --- | --- | --- | --- | --- | --- | --- |
| 0.0145 | 0.0145 | 2.82 | 5.5 | > 10 | 5.01 | 1.82 | 5.13 | 78 | 1.15 | – | – | COCCn1cc(-c2c(C3CC3)nc3c(-c4ccncc4)ccnn23)cn1 [compound 142, 2-cyclopropyl-3-[1-(2-methoxyethyl)-1H-pyrazol-4-yl]-8-(4-pyridinyl)-imidazo[1,2-b]pyridazine] | 5 | – |
| 0.0174 | 0.0174 | 5.13 | 3.98 | > 10 | 5.89 | 1.95 | 1.45 | – | 0.646 | – | – | COC(C)(C)Cn1cc(-c2c(C3CC3)nc3c(-c4ccncc4)ccnn23)cn1 [compound 143, 2-cyclopropyl-3-[1-(2-methoxy-2-methylpropyl)-1H-pyrazol-4-yl]-8-(4-pyridinyl)-imidazo[1,2-b]pyridazine] | 1.2 | – |
| 0.0182 | 0.0182 | > 10 | > 10 | > 10 | > 10 | 5.89 | 7.41 | – | 2.57 | – | – | Cc1nc2c(-c3ccncc3)ccnn2c1-c1cnn(CC(F)(F)F)c1 [compound 135, 2-methyl-8-(4-pyridinyl)-3-[1-(2,2,2-trifluoroethyl)-1H-pyrazol-4-yl]-imidazo[1,2-b]pyridazine] | – | 3.1 |

From patent publication US20120220581A1, “IMIDAZO[1,2-b]PYRIDAZINE DERIVATIVES AND THEIR USE AS PDE10 INHIBITORS” (Janssen-Cilag, S.A., priority 2009, published 2012)
